According to patent US11458120B2, “Aptamer-drug conjugate and use thereof” (priority 2016, dated 2022):
Non-standard residues stand in square brackets, D forms with d. Residues, ends and D or L forms follow the SMILES beside them. *: point of attachment. Dolaproine = CO[C@@H]([C@@H]1CCCN1)[C@@H](C)C(=O)O; Dil = CC[C@H](C)[C@H](NC)[C@@H](CC(=O)O)OC; X1 = C[C@@H](N*)[C@@H](O)c1ccccc1; NMeV = CN[C@H](C(=O)O)C(C)C

Assays:
Mv4-11 cell line = assay: MTT assay to Mv4-11 cell lines; type: cell-based; conditions: Mv4-11 cells, 72 hours incubation, absorbance at 490 nm, FIG. 6
Protocol: With regard to Mv4-11 cell line as a […] over-expressing a nucleoline protein, cell inhibition efficacy of citravin-(GLFG-MC-S-C6)-T3-AS1411 was verified in vitro by MTT assay. […] Mv4-11 cells (ATCC, IMDM+10% FBS) were seeded on a 96-well plate in a cell number of 2.5 to 5×10^5 cells/well, which was determined by a cell test method to determine an appropriate cell concentration, followed by growing for 1 day. After heating each of citravin-(GLFG-MC-S-C6)-T3-AS1411 and citravin-(GLFG-MC-S-C6)-T3-CRO at 95° C. for 5 minutes, the heated product was gradually cooled at room temperature and directly treated on each well at different concentrations. After incubating the treated A549 cells in 5% CO2 incubator for 72 hours, the incubated product was treated with 20 μL of a reagent solution for MTT assay (Cell Proliferation kit II, Roche) and incubated for different periods of time (10 min, 30 min, 1 hr). Thereafter, the final product was subjected to measurement of absorbance at 490 nm by an ELISA reader (FIG. 6).

[1] = test system: Mv4-11 AML cell line-injected mice; assay: In vivo therapeutic efficacy on Mv4-11 AML cell line-injected mice (FDG PET); set-up: species or system nude mouse; conditions: Mv4-11 AML tumor, i.v. 4 times by 5 day intervals, conjugate 7.5 mg/kg or MMAE 0.5 mg/kg, 30 days after start of treatment
Protocol: (§1) To Mv4-11 AML cell line-injected mice, citravin-(GLFG-MC-S-C6)-T3-AS1411 and MMAE, respectively, were administered by IV injection for 30 days, followed by identifying tumor sizes through PET images. Mv4-11 AML cells in a number of 6.1×10^6 cells/ml were injected subcutaneously in the right thigh of each nude mouse. The tumor size was measured in 3 to 4 weeks after the injection and, when a diameter of the tumor reached 0.8 cm, microPET images were captured before treatment. For PET images, F-18 FDG 0.2 mCi was i.p. injected and then the images were captured (Siemens Inveon). After detection of FDG intake in the tumor from the images, citravin-(GLFG-MC-S-C6)-T3-AS1411 was i.v. injected in an experimental group of 5 mice 4 times by 5 day intervals (7.5 mg/kg, 0.5 mg/kg of MMAE). After 30 days from the start of treatment, microPET images were captured by the same method as used before treatment (FIG. 13 and FIG. 14).
To Mv4-11 AML cell line-injected mice, MMAE was administered by IV injection for 30 days, followed by observation of PET images. Mv4-11 AML cells in the number of 6.1×10^6 cells/ml were injected subcutaneously in the right thigh of each nude mouse. The tumor size was measured in 3 to 4 weeks after the injection and, when a diameter of the tumor reached 0.8 cm, microPET images were captured before treatment. […]

[2] = test system: A549 lung cancer cell line-injected mice; assay: In vivo therapeutic efficacy on A549 lung cancer cell line-injected mice (FDG PET, tumor size); set-up: species or system nude mouse; conditions: i.v. 4 times by 5 day intervals, conjugate 7.5 mg/kg (0.5 mg/kg of MMAE) or MMAE 0.5 mg/kg, 30 days after start of treatment
Protocol: as §1, with “A549 lung cancer” for “Mv4-11 AML”, “MMAE-(PAB-Cit-Val-MC-S-C6)-T3-AS1411” for “citravin-(GLFG-MC-S-C6)-T3-AS1411”, “After 30 days from the start of treatment, microPET images were captured by the same method as used before treatment (FIG. 13 and FIG. 14).” left out
To A549 lung cancer cell-injected mice, MMAE was administered by IV injection for 30 days, followed by observation of PET images. […] The tumor size was measured in 3 to 4 weeks after the injection and, when a diameter of the tumor reached 0.8 cm, microPET images were captured before treatment. […]
As compared to administration of MMAE alone, it was determined that MMAE-(PAB-Cit-Val-MC-S-C6)-T3-AS1411 inhibits 80% more cancer. After the start of treatment, sizes of tumors were measured in both of horizontal and vertical axes by 5 day intervals. […]

[3] = reported by the Weihong Tang group, University of Florida; cited from earlier work
A549 cell line = assay: MTT assay to A549 cell lines; type: cell-based; conditions: A549 cells, 72 hours incubation, FIG. 17 and FIG. 18
Protocol: With regard to A549 cell line as a lung cancer cell line over-expressing a nucleoline protein, cell inhibition efficacy of MMAE-(PAB-Cit-Val-MC-S-C6)-T3-AS1411 was verified in vitro by MTT assay. […] A549 cells (ATCC, IMDM+10% FBS) were seeded on a 96-well plate in a cell number of 2.5 to 5×10^5 cells/well, which was determined by a cell test method to determine an appropriate cell concentration, followed by growing for 1 day. After heating each of MMAE-(PAB-Cit-Val-MC-S-C6)-T3-AS1411 and MMAE-(PAB-Cit-Val-MC-S-C6)-T3-CRO at 95° C. for 5 minutes, the heated product was gradually cooled at room temperature and directly treated on each well at different concentrations. […] Thereafter, the final product was subjected to measurement of absorbance at 490 nm by an ELISA reader (FIG. 5).
With regard to A549 cell line as a lung cancer cell line over-expressing a nucleoline protein, cell inhibition efficacies of MMAE-(PAB-Cit-Val-MC-S-C6)-T3-AS1411, 12 or 13-(MMAE-PAB-Cit-Val-MC-S-C6)-AS1411 and 12,13-(MMAE-PAB-Cit-Val-MC-S-C6)2-AS1411 were verified in vitro by MTT assay. […] A549 cells (ATCC, IMDM+10% FBS) were seeded on a 96-well plate in a cell number of 2.5 to 5×10^5 cells/well, which was determined by a cell test method to determine an appropriate cell concentration, followed by growing for 1 day. […]

citravin-(Gly-Leu-Phe-Gly (SEQ ID NO: 8))-Mal-S-C6-tttggtggtggtggttgtggtggtggtgg [citravin-(GLFG-MC-S-C6)-T3-AS1411]
cell inhibition efficacy (cell viability and cell proliferation) by MTT assay, compared with citravin (Mv4-11 cell line): almost the same efficacy as citravin | FDG intake in the tumor from PET images, after vs before treatment [1]: a decrease in FDG intake in the tumor is observed

CC[C@H](C)[C@@H]([C@@H](CC(=O)N1CCC[C@H]1[C@H](OC)[C@@H](C)C(=O)N[C@H](C)[C@@H](O)c1ccccc1)OC)N(C)C(=O)[C@@H](NC(=O)[C@@H](NC)C(C)C)C(C)C [MMAE, monomethyl auristatin E, reference compound] (H-[NMeV]V[Dil][Dolaproine]-X1)
FDG intake in the tumor from PET images, after vs before treatment [1]: FDG intake in the tumor was increased even after treatment | FDG intake in the tumor from PET images, after vs before treatment [2]: FDG intake in the tumor was increased even after treatment

COc1cccc2c1C(=O)c1c(O)c3c(c(O)c1C2=O)C[C@@](O)(C(=O)CO)C[C@@H]3O[C@H]1C[C@H](N)[C@H](O)[C@H](C)O1 [doxorubicin]
cytotoxic effects [3]: 20%

ggtggtggtggu (SEQ ID NO: 4)[5-N-(6-(3-monomethyl auristatin-p-aminobenzoyloxycarbonyl-citrulline-valine-Mal-thiopropanoyl)-aminohexyl)-3-acrylamido]u[5-N-(6-(3-monomethyl auristatin-p-aminobenzoyloxycarbonyl-citrulline-valine-Mal-thiopropanoyl)-aminohexyl)-3-acrylamido]gtggtggtggtgg (DNA GGTGGTGGTGGU; two MMAE-linker conjugates at positions 12,13, chemistry not fully specified) [12,13-(MMAE-PAB-Cit-Val-MC-S-C6)2-AS1411]
cell inhibition efficacy by MTT assay, comparison between MMAE-linker-aptamer conjugates (A549 cell line): superior efficacy over of MMAE-(PAB-Cit-Val-MC-S-C6)-T3-AS1411
